In PubChem BioAssay (NCI):
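Dose response: 5 concentrations. Exposure: 48 h. Format: 96-well plates. Endpoint: linear interpolation; highest concentration if not reached. The concentration for 50% growth inhibition is given as GI50. TGI is the concentration that stops growth completely.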

Legend:
Assay in all cases: NCI tumour cell line growth inhibition, 48 h
K-562 leukemia = system: K-562 leukemia
EKVX NSCLC = system: EKVX NSCLC
DU-145 prostate = system: DU-145 prostate
786-0 renal = system: 786-0 renal
MOLT-4 leukemia = system: MOLT-4 leukemia
HCT-116 colon = system: HCT-116 colon
OVCAR-8 ovarian = system: OVCAR-8 ovarian
NCI-H23 lung = system: NCI-H23 lung
LOX IMVI melanoma = system: LOX IMVI melanoma
HL-60(TB) leukemia = system: HL-60(TB) leukemia

| SMILES | GI50 (K-562 leukemia) [µM] | TGI (K-562 leukemia) [µM] | GI50 (EKVX NSCLC) [µM] | TGI (EKVX NSCLC) [µM] | GI50 (DU-145 prostate) [µM] | TGI (DU-145 prostate) [µM] | GI50 (786-0 renal) [µM] | TGI (786-0 renal) [µM] | GI50 (MOLT-4 leukemia) [µM] | TGI (MOLT-4 leukemia) [µM] | GI50 (HCT-116 colon) [µM] | TGI (HCT-116 colon) [µM] | GI50 (OVCAR-8 ovarian) [µM] | TGI (OVCAR-8 ovarian) [µM] | GI50 (NCI-H23 lung) [µM] | TGI (NCI-H23 lung) [µM] | TGI (LOX IMVI melanoma) [µM] | TGI (HL-60(TB) leukemia) [µM] | GI50 (LOX IMVI melanoma) [µM] | GI50 (HL-60(TB) leukemia) [µM] |
| --- | --- | --- | --- | --- | --- | --- | --- | --- | --- | --- | --- | --- | --- | --- | --- | --- | --- | --- | --- | --- |
| O=C1/C(=C/c2ccccc2Cl)N=C(c2ccccc2)N1Cc1ccco1 | 24.2 | > 100 | 54 | > 100 | 69.2 | > 100 | 34.7 | > 100 | 13.3 | > 100 | 18.5 | > 100 | > 100 | > 100 | 40.5 | > 100 | – | – | – | – |
| CC(=O)OC1CCn2nnc(COC(=O)NC(C)C)c21 (configuration not stated) | – | > 100 | – | > 100 | – | – | – | > 100 | – | > 100 | – | > 100 | – | > 100 | – | > 100 | – | – | – | – |
| COc1ccc(C(c2ccc(C(C)C)cc(=O)c2O)c2c(O)cc3oc(-c4ccccc4)cc(=O)c3c2O)cc1 (configuration not stated) | – | 64.3 | – | > 100 | – | – | – | 14.1 | – | 48.4 | – | – | – | > 100 | – | 55.7 | 47.7 | 28.8 | – | – |
| O=c1c2ccc3cccc4c(=O)cc(c5ccccc15)-c2c34 | – | > 100 | – | > 100 | – | – | – | > 100 | – | > 100 | – | > 100 | – | > 100 | – | > 100 | > 100 | > 100 | – | – |
| Cc1c(C(=O)/C=C/c2ccc(Cl)cc2)[n+](=O)c2ccccc2n1[O-] | – | 52.9 | – | 31.2 | – | – | – | 27.4 | – | 45.6 | – | 18.5 | – | 23.3 | – | 22.2 | 20.5 | 35.2 | – | – |
| CCCCCCCCCCCC(=O)OCC1OC(n2cc(F)c(=O)[nH]c2=O)C(N)C(OC(=O)CCCCCCCCCCC)C1O (configuration not stated) | – | > 100 | – | > 100 | – | – | – | > 100 | – | > 100 | – | > 100 | – | > 100 | – | > 100 | > 100 | > 100 | – | – |
| CCCNCc1nc2ccc(Br)cc2c(=O)n1CCC | – | > 100 | – | 33.3 | – | – | – | 29.5 | – | > 100 | – | 21.5 | – | 26.7 | – | 26.2 | 17.7 | 30.8 | – | – |
| O=c1ccccc2cccc(O)c12 | – | > 100 | – | > 100 | – | – | – | > 100 | – | > 100 | – | > 100 | – | > 100 | – | > 100 | > 100 | > 100 | – | – |
| COc1ccc2c(c1)CC[C@@H]1[C@@H]2CC[C@@]2(C)[C@H]1CC1(CCCCC1)[C@@H]2O | – | – | 18.3 | 35.5 | 15.2 | 29.3 | 3.81 | 14.7 | – | – | 12.3 | 26.4 | 19 | 41.5 | 18.6 | 35.9 | 20.9 | – | 7.28 | – |
| CCC[CH2][Sn]([CH2]CCC)([O]C(=O)c1cccc(F)c1)[O]C(=O)c1cccc(F)c1 | 0.298 | 1.81 | 1.3 | 2.96 | – | – | 1.19 | 2.49 | 0.363 | 2.41 | 1.29 | 2.55 | 1.22 | 2.6 | 0.329 | 1.57 | 2.99 | – | 0.605 | – |
| Cc1ccc(NC(=O)/C(CC(=O)c2c[n+](=O)c3ccccc3n2O)=N\NC(=O)C[n+]2ccccc2)cc1 | – | > 100 | – | > 100 | – | – | – | > 100 | – | > 100 | – | > 100 | – | > 100 | – | – | > 100 | > 100 | – | – |
| CC(=O)OC12c3ccccc3C1CCCCCC21OCCCO1 (configuration not stated) | – | > 100 | – | – | – | – | – | > 100 | – | > 100 | – | > 100 | – | > 100 | – | > 100 | > 100 | > 100 | – | – |
| C=CC1CC12C(=O)C1OC2(C)C2C(=O)c3c(ccc4c3ccc3ccccc34)C(=O)C12 (configuration not stated) | 26.1 | > 100 | 78.6 | > 100 | – | – | 38.8 | > 100 | 30.8 | > 100 | 52.6 | > 100 | 64.6 | > 100 | 37.3 | > 100 | – | > 100 | – | 31 |
| N=C(N)SCCc1cn2ccccc2n1 | – | > 100 | – | > 100 | – | – | – | > 100 | – | > 100 | – | > 100 | – | > 100 | – | > 100 | > 100 | > 100 | – | – |
| CC(=O)O[C@@H]1CO[C@H]2O[C@H]3[C@@H](C(C=O)=C[C@H](O)[C@@H]4C5=C(C(C)C)CC[C@]5(C)CC[C@@]34C)[C@@]2(O)C1=O | – | 0.368 | – | 1.28 | – | 2.02 | – | 0.253 | – | 0.28 | – | 0.27 | – | 0.52 | – | 0.893 | 0.687 | – | – | – |
| COc1ccc2c3c1C(=O)CCC3CO2 (configuration not stated) | – | > 100 | – | > 100 | – | – | – | > 100 | – | > 100 | – | > 100 | – | > 100 | – | > 100 | > 100 | > 100 | – | – |
| C=C1CC(CCCl)(c2ccccc2)OC1=O (configuration not stated) | – | > 96.7 | – | > 63.1 | – | – | – | 31.7 | – | 49.9 | – | > 53.9 | – | > 100 | – | > 100 | > 62.2 | 44.8 | – | – |

| SMILES | GI50 (K-562 leukemia) [µM] | TGI (K-562 leukemia) [µM] | GI50 (EKVX NSCLC) [µM] | TGI (EKVX NSCLC) [µM] | GI50 (DU-145 prostate) [µM] | TGI (DU-145 prostate) [µM] | GI50 (786-0 renal) [µM] | TGI (786-0 renal) [µM] | GI50 (MOLT-4 leukemia) [µM] | TGI (MOLT-4 leukemia) [µM] | GI50 (HCT-116 colon) [µM] | TGI (HCT-116 colon) [µM] | GI50 (OVCAR-8 ovarian) [µM] | TGI (OVCAR-8 ovarian) [µM] | GI50 (NCI-H23 lung) [µM] | TGI (NCI-H23 lung) [µM] | TGI (LOX IMVI melanoma) [µM] | TGI (HL-60(TB) leukemia) [µM] | GI50 (LOX IMVI melanoma) [µM] | GI50 (HL-60(TB) leukemia) [µM] |
| --- | --- | --- | --- | --- | --- | --- | --- | --- | --- | --- | --- | --- | --- | --- | --- | --- | --- | --- | --- | --- |
| O=C(O)/C(=C/c1ccccc1[N+](=O)[O-])c1ccccc1 | – | > 100 | – | > 100 | – | – | – | > 100 | – | > 100 | – | > 100 | – | > 100 | – | > 100 | > 100 | > 100 | – | – |
| N=C(c1ccccc1)N(O)C1CCCCC1 | – | – | – | > 100 | – | – | – | > 100 | – | – | – | > 100 | – | > 100 | – | > 100 | > 100 | > 100 | – | – |
| COc1cnc2c(c1)C(=O)c1c-2n(CCCn2ccnc2)c(=O)c2cc(Cl)ccc12 | 0.0347 | > 100 | 0.251 | > 100 | 0.0432 | > 100 | 0.0262 | 0.0823 | – | – | 0.0147 | 0.216 | 0.0389 | 14.3 | 0.0382 | 0.505 | 0.116 | – | 0.0198 | – |
| CN(C)CCn1c2ccccc2c2nc3cc4ccccc4cc3nc21 | – | 10.9 | – | 31.8 | – | – | – | 16 | – | 4.1 | – | 16.9 | – | 23 | – | 24 | 15.6 | 11.1 | – | – |
| O=c1/c(=C/c2ccc(Cl)cc2Cl)sc2nc3ccccc3n12 | – | > 100 | – | > 100 | – | – | – | > 100 | – | > 100 | – | > 100 | – | > 100 | – | > 100 | > 100 | > 100 | – | – |
| CC(=O)N1CC2Nc3ccccc3C2CC1CO (configuration not stated) | – | > 100 | – | > 100 | – | – | – | > 100 | – | > 100 | – | > 100 | – | > 100 | – | > 100 | > 100 | > 100 | – | – |
| COc1cc2c(c(OC)c1OC)-c1[nH]ncc1CC2 | – | > 100 | – | > 100 | – | – | – | > 100 | – | > 100 | – | > 100 | – | > 100 | – | > 100 | > 100 | > 100 | – | – |
| Cn1c(CCC#N)nc2ccc(Br)cc2c1=O | – | > 100 | – | > 100 | – | – | – | > 100 | – | > 100 | – | – | – | > 100 | – | > 100 | > 100 | > 100 | – | – |
| O=S1(=O)CCN(Cc2ccccn2)CC1 | – | > 100 | – | > 100 | – | > 100 | – | > 100 | – | – | – | > 100 | – | > 100 | – | > 100 | > 100 | – | – | – |
| CC(C)C(=O)N[C@@H](C)C(=O)N(Cc1ccc2ccccc2c1)N=O | – | > 100 | – | > 100 | – | – | – | > 100 | – | > 100 | – | > 100 | – | > 100 | – | – | > 100 | – | – | – |
| Nc1ccc(Nc2nc(F)nc(-c3c4ccccc4c4n3CCS4)n2)cc1 | – | – | – | 48.2 | – | – | – | 32 | – | 50.9 | – | 28 | – | 37.8 | – | 32.7 | 24.6 | – | – | – |
| C(=C\c1csnn1)/c1cccnc1 | – | > 100 | – | > 100 | – | – | – | > 100 | – | > 100 | – | > 100 | – | > 100 | – | > 100 | > 100 | > 100 | – | – |
| CC1=CC(C)(C)N=C2SC(c3ccc(Cl)cc3)=NN12 | – | > 100 | – | > 100 | – | – | – | 32.8 | – | 51 | – | – | – | – | – | 81.5 | > 100 | 32.5 | – | – |
| O=c1cc(Cl)nc[nH]1 | – | > 100 | – | > 100 | – | – | – | > 100 | – | > 100 | – | > 100 | – | > 100 | – | > 100 | > 100 | > 100 | – | – |
| CCOC(=O)/N=C(\N)SCc1ccccc1 | – | > 100 | – | > 100 | – | – | – | > 100 | – | > 100 | – | > 100 | – | > 100 | – | > 100 | > 100 | > 100 | – | – |
| O=C(CCC(=O)Nc1ccc(Cl)cc1)CC(=O)c1ccc(F)cc1 | – | > 100 | – | – | – | – | – | > 100 | – | > 100 | – | > 100 | – | > 100 | – | > 100 | > 100 | > 100 | – | – |
| O=C(Nc1c(-c2nc3ccccc3[nH]2)sc(=S)n1-c1ccccc1)c1ccccc1 | – | > 100 | – | > 100 | – | – | – | > 100 | – | > 100 | – | – | – | > 100 | – | > 100 | > 100 | > 100 | – | – |
